From PMC4657098, “A Review of the Updated Pharmacophore for the Alpha 5 GABA(A) Benzodiazepine Receptor Model” (International Journal of Medicinal Chemistry, 2015)

What was measured:
α4β3γ2 GABAA/BzR = biological target: T1, α4β3γ2 GABAA/BzR (Homo sapiens, UniProt P18507+P48169); assay: biochemical; type: binding
T1 construct: expressed in transfected cells; host or cells: LTK cells (given for XLi-093 only)

α5β3γ2 GABAA receptor [1] = biological target: T2, α5β3γ2 GABAA receptor (Homo sapiens, UniProt P18507+P31644); assay: Oocyte electrophysiology, α5β3γ2; type: cell-based
T2 construct: expressed in transfected cells; host or cells: Xenopus oocytes

C57BL/6J mice = type: in vivo
Source text: Figure 3 XLi-093 (4) effects on cognition enhancement by Wenger et al. (data on statistical significance not shown, unpublished results). Effects of 4 on cognition from the mean delay achieved by C57BL/6J mice titrating delayed matching-to-position schedule.

[2] = test system: other receptors (PDSP panel); assay: Full PDSP panel receptor binding; details: NIMH PDSP, Case Western Reserve
5ht2a = biological target: T3, 5ht2a (Homo sapiens, UniProt P28223); assay: PDSP receptor binding, 5ht2a; details: PDSP primary screen at 10 µM
T3 construct: purchased NIMH PDSP (Psychoactive Drug Screening Program, Roth lab, Case Western Reserve)

α1A = biological target: T4, α1A (Homo sapiens, UniProt P35348); assay: PDSP receptor binding, α1A; details: PDSP primary screen at 10 µM
T4 construct: purchased NIMH PDSP (Psychoactive Drug Screening Program, Roth lab, Case Western Reserve)

[3] = PDSP receptor binding, β1B; details: PDSP primary screen at 10 µM
α2B = biological target: T5, α2B (Homo sapiens, UniProt P18089); assay: PDSP receptor binding, α2B; details: PDSP primary screen at 10 µM
T5 construct: purchased NIMH PDSP (Psychoactive Drug Screening Program, Roth lab, Case Western Reserve)

Beta1 = biological target: T6, Beta1 (Homo sapiens, UniProt P08588); assay: PDSP receptor binding, Beta1; details: PDSP primary screen at 10 µM
T6 construct: purchased NIMH PDSP (Psychoactive Drug Screening Program, Roth lab, Case Western Reserve)

Beta2 = biological target: T7, Beta2 (Homo sapiens, UniProt P07550); assay: PDSP receptor binding, Beta2; details: PDSP primary screen at 10 µM
T7 construct: purchased NIMH PDSP (Psychoactive Drug Screening Program, Roth lab, Case Western Reserve)

CB1 = biological target: T8, CB1 (Homo sapiens, UniProt P21554); assay: PDSP receptor binding, CB1; details: PDSP primary screen at 10 µM
T8 construct: purchased NIMH PDSP (Psychoactive Drug Screening Program, Roth lab, Case Western Reserve)

CB2 = biological target: T9, CB2 (Homo sapiens, UniProt P34972); assay: PDSP receptor binding, CB2; details: PDSP primary screen at 10 µM
T9 construct: purchased NIMH PDSP (Psychoactive Drug Screening Program, Roth lab, Case Western Reserve)

D1 = biological target: T10, D1 (Homo sapiens, UniProt P21728); assay: PDSP receptor binding, D1; details: PDSP primary screen at 10 µM
T10 construct: purchased NIMH PDSP (Psychoactive Drug Screening Program, Roth lab, Case Western Reserve)

DAT = biological target: T11, DAT (Homo sapiens, UniProt Q01959); assay: PDSP receptor binding, DAT; details: PDSP primary screen at 10 µM
T11 construct: purchased NIMH PDSP (Psychoactive Drug Screening Program, Roth lab, Case Western Reserve)

DOR = biological target: T12, DOR (Homo sapiens, UniProt P41143); assay: PDSP receptor binding, DOR; details: PDSP primary screen at 10 µM
T12 construct: purchased NIMH PDSP (Psychoactive Drug Screening Program, Roth lab, Case Western Reserve)

Imidaz oline = assay: PDSP receptor binding, Imidazoline; details: PDSP primary screen at 10 µM
M1 = biological target: T13, M1 (Homo sapiens, UniProt P11229); assay: PDSP receptor binding, M1; details: PDSP primary screen at 10 µM
T13 construct: purchased NIMH PDSP (Psychoactive Drug Screening Program, Roth lab, Case Western Reserve)

M4 = biological target: T14, M4 (Homo sapiens, UniProt P08173); assay: PDSP receptor binding, M4; details: PDSP primary screen at 10 µM
T14 construct: purchased NIMH PDSP (Psychoactive Drug Screening Program, Roth lab, Case Western Reserve)

M5 = biological target: T15, M5 (Homo sapiens, UniProt P08912); assay: PDSP receptor binding, M5; details: PDSP primary screen at 10 µM
T15 construct: purchased NIMH PDSP (Psychoactive Drug Screening Program, Roth lab, Case Western Reserve)

MDR = assay: PDSP receptor binding, MDR; details: PDSP primary screen at 10 µM
NET = biological target: T16, NET (Homo sapiens, UniProt P23975); assay: PDSP receptor binding, NET; details: PDSP primary screen at 10 µM
T16 construct: purchased NIMH PDSP (Psychoactive Drug Screening Program, Roth lab, Case Western Reserve)

NMDA = assay: PDSP receptor binding, NMDA; details: PDSP primary screen at 10 µM
σ1 = biological target: T17, σ1 (Homo sapiens, UniProt Q99720); assay: PDSP receptor binding, σ1; details: PDSP primary screen at 10 µM
T17 construct: purchased NIMH PDSP (Psychoactive Drug Screening Program, Roth lab, Case Western Reserve)

σ2 = assay: PDSP receptor binding, σ2; details: PDSP primary screen at 10 µM
α1β3γ2 BzR/GABA(A) = details: Figure 1; LTK cells; read-out: Binding affinity α1; cited from earlier work
α2β3γ2 BzR/GABA(A) = details: Figure 1; LTK cells; read-out: Binding affinity α2; cited from earlier work
α3β3γ2 BzR/GABA(A) = details: Figure 1; LTK cells; read-out: Binding affinity α3; cited from earlier work
α4β3γ2 BzR/GABA(A) = details: Figure 1; LTK cells; read-out: Binding affinity α4; cited from earlier work
α6β3γ2 BzR/GABA(A) = details: Figure 1; LTK cells; read-out: Binding affinity α6; cited from earlier work
[4] = test system: GABA(A) receptor subtypes; details: up to a concentration of 1 μM; any one of the subtypes tested; cited from earlier work
α1β3γ2 GABAA receptor = details: cited from earlier work
α3β3γ2 GABAA receptor = details: cited from earlier work
α5β3γ2 GABAA receptor [5] = biological target: T2, α5β3γ2 GABAA receptor; details: cited from earlier work
[6] = test system: Bz BS of GABA(A) receptors; details: Supplement Table 1; cited from earlier work
α2β3γ2 GABAA/BzR = α2β3γ2 GABAA/BzR (Homo sapiens, UniProt P18507+P47869); assay: Competition binding to HEK cell membranes, α2β3γ2; set-up: expressed in transfected cells; details: Ki α2
α3β3γ2 GABAA/BzR = α3β3γ2 GABAA/BzR (Homo sapiens, UniProt P18507+P34903); assay: Competition binding to HEK cell membranes, α3β3γ2; set-up: expressed in transfected cells; details: Ki α3
α5β3γ2 GABAA/BzR = α5β3γ2 GABAA/BzR (Homo sapiens, UniProt P18507+P31644); assay: Competition binding to HEK cell membranes, α5β3γ2; set-up: expressed in transfected cells; details: Ki α5
α6β3γ2 GABAA/BzR = α6β3γ2 GABAA/BzR (Homo sapiens, UniProt P18507+Q16445); assay: Competition binding to HEK cell membranes, α6β3γ2; set-up: expressed in transfected cells; details: Ki α6

C#Cc1ccc2c(c1)C(=O)N(C)Cc1c(C(=O)OCCCOC(=O)c3ncn4c3CN(C)C(=O)c3cc(C#C)ccc3-4)ncn1-2 [XLi-093 (4), 1,3-Bis(8-acetyleno-5,6-dihydro-5-methyl-6-oxo-4H-imidazo[1,5a][1,4]benzodiazepine-3-carboxy) propyl diester]
Ki (α4β3γ2 GABAA/BzR): 1.55 µM
efficacy type at the α5 subtype (α5β3γ2 GABAA receptor [1]): antagonist
performance (mean delay achieved) (C57BL/6J mice; C57BL/6J mice, preliminary data, unpublished results (Wenger et al.)): enhances performance
crossing of the blood brain barrier (C57BL/6J mice; inferred from the cognition effect in mice): does cross the blood brain barrier
full panel receptor binding [2]: do not bind to other receptors at levels of concern
5ht2a binding (5ht2a): ∗ (“∗” indicates “primary missed” (<50% inhibition at 10 µM))
α1A binding (α1A): ∗ (“∗” indicates “primary missed” (<50% inhibition at 10 µM))
β1B binding [3]: ∗ (“∗” indicates “primary missed” (<50% inhibition at 10 µM))
α2B binding (α2B): ∗ (“∗” indicates “primary missed” (<50% inhibition at 10 µM))
Beta1 binding (Beta1): ∗ (“∗” indicates “primary missed” (<50% inhibition at 10 µM))
Beta2 binding (Beta2): ∗ (“∗” indicates “primary missed” (<50% inhibition at 10 µM))
CB1 binding (CB1): ∗ (“∗” indicates “primary missed” (<50% inhibition at 10 µM))
CB2 binding (CB2): ∗ (“∗” indicates “primary missed” (<50% inhibition at 10 µM))
D1 binding (D1): ∗ (“∗” indicates “primary missed” (<50% inhibition at 10 µM))
DAT binding (DAT): ∗ (“∗” indicates “primary missed” (<50% inhibition at 10 µM))
DOR binding (DOR): ∗ (“∗” indicates “primary missed” (<50% inhibition at 10 µM))
Imidaz oline binding (Imidaz oline): ∗ (“∗” indicates “primary missed” (<50% inhibition at 10 µM))
M1 binding (M1): ∗ (“∗” indicates “primary missed” (<50% inhibition at 10 µM))
M4 binding (M4): ∗ (“∗” indicates “primary missed” (<50% inhibition at 10 µM))
M5 binding (M5): ∗ (“∗” indicates “primary missed” (<50% inhibition at 10 µM))
MDR binding (MDR): ∗ (“∗” indicates “primary missed” (<50% inhibition at 10 µM))
NET binding (NET): ∗ (“∗” indicates “primary missed” (<50% inhibition at 10 µM))
NMDA binding (NMDA): ∗ (“∗” indicates “primary missed” (<50% inhibition at 10 µM))
σ1 binding (σ1): ∗ (“∗” indicates “primary missed” (<50% inhibition at 10 µM))
σ2 binding (σ2): ∗ (“∗” indicates “primary missed” (<50% inhibition at 10 µM))
Ki (α1β3γ2 BzR/GABA(A)): > 1 µM
Ki (α2β3γ2 BzR/GABA(A)): > 1 µM
Ki (α3β3γ2 BzR/GABA(A)): 0.858 µM
Ki (α4β3γ2 BzR/GABA(A)): 1.55 µM
Ki (α6β3γ2 BzR/GABA(A)): > 2 µM
triggering of chloride flux [4]: did not trigger chloride flux
modulation of GABA induced chloride flux, α1β3γ2 (α1β3γ2 GABAA receptor; at 1 μM): did not modulate
influence on benzodiazepine (Valium) stimulation of GABA-induced current, α1β3γ2 (α1β3γ2 GABAA receptor): barely influenced
modulation of GABA induced chloride flux, α3β3γ2 (α3β3γ2 GABAA receptor; at 1 μM): did not modulate
influence on benzodiazepine (Valium) stimulation of GABA-induced current, α3β3γ2 (α3β3γ2 GABAA receptor): barely influenced
modulation of GABA induced chloride flux, α5β3γ2 (α5β3γ2 GABAA receptor [5]; at 1 μM): very slightly inhibited
influence on benzodiazepine (Valium) stimulation of GABA-induced current, α5β3γ2 (α5β3γ2 GABAA receptor [5]): shifted the diazepam dose response curve to the right
inhibition of diazepam-stimulated currents in α5β3γ2 receptors (α5β3γ2 GABAA receptor [5]): dose dependently and completely inhibit
modulation [6]: antagonist
Ki (α2β3γ2 GABAA/BzR): > 1 µM
Ki (α3β3γ2 GABAA/BzR): 0.858 µM
Ki (α5β3γ2 GABAA/BzR): 0.015 µM
Ki (α6β3γ2 GABAA/BzR): > 2 µM
